In brackets after ≈: the same amount, converted by molar mass.
What was measured:
Assay in all cases: In vitro antibacterial activity, MIC, broth microdilution
Assay type in all cases: cell-based
[1] = test system: Streptococcus pyogenes A 26; settings: S. pyogenes A 26, MHB + 5% horse serum, 37° C., 18 hours; for MIC: Streptococcus pyogenes, A26, read-out: minimum inhibiting concentration MIC
Experimental: (§1) a) In vitro antibacterial activity The determination of the minimum inhibiting concentrations (MIC), with respect to Gram-positive and Gram-negative bacteria was carried out through the micromethod of gradual broth dilution in double series [National Committee for Clinical Laboratory Standards, 1990; Methods for dilution antimicrobial susceptibility tests for bacteria that grow aerobically; Approved standards […], Villanova, Pa.], by using Mueller Hinton Broth (MHB) as a culture medium. In the case of […] bacteria, horse serum at 5% (Streptococcus pneumoniae and Streptococcus pyogenes) was added to the medium. Roxithromycin and Clarithromycin [The Merck Index, XI Ed., No. 8253 and 2340, respectively] were used as reference macrolides. MIC, expressed as (μg/ml), were determined after incubation of the microplates at 37° C. for 18 hours, evaluating the lowest antibiotic concentration enabling the inhibition of bacterial development.

[2] = test system: Staphylococcus aureus PV 14; settings: S. aureus PV 14, MHB, 37° C., 18 hours; for MIC: Staphylococcus aureus, PV14, read-out: minimum inhibiting concentration MIC
Experimental: as §1

[3] = test system: Streptococcus pneumoniae BS 3; settings: S. pneumoniae BS 3, MHB + 5% horse serum, 37° C., 18 hours; for MIC: Streptococcus pneumoniae, BS3, read-out: minimum inhibiting concentration MIC
Experimental: as §1

[4] = test system: Enterococcus faecalis ATCC 29212; settings: E. faecalis ATCC 29212, MHB, 37° C., 18 hours; for MIC: Enterococcus faecalis, ATCC29212, read-out: minimum inhibiting concentration MIC
Experimental: as §1

[5] = test system: Streptococcus pyogenes C 203; settings: S. pyogenes C 203, MHB + 5% horse serum, 37° C., 18 hours; for MIC: Streptococcus pyogenes, C203, read-out: minimum inhibiting concentration MIC
Experimental: as §1

[6] = test system: Streptococcus pneumoniae BS 4; settings: S. pneumoniae BS 4, MHB + 5% horse serum, 37° C., 18 hours; for MIC: Streptococcus pneumoniae, BS4, read-out: minimum inhibiting concentration MIC
Experimental: as §1

[7] = test system: Escherichia coli ATCC 25922; settings: E. coli ATCC 25922, MHB, 37° C., 18 hours; for MIC: Escherichia coli, ATCC25922, read-out: minimum inhibiting concentration MIC
Experimental: as §1

[8] = test system: Klebsiella pneumoniae ZC 2; settings: K. pneumoniae ZC 2, MHB, 37° C., 18 hours; for MIC: Klebsiella pneumoniae, ZC2, read-out: minimum inhibiting concentration MIC
Experimental: as §1

## CC[C@H]1OC(=O)[C@H](C)[C@@H](O[C@H]2C[C@@](C)(OC)[C@@H](O)[C@H](C)O2)[C@H](C)[C@@H](O[C@@H]2O[C@H](C)C[C@H](N(C)C)[C@H]2O)[C@](C)(O)C[C@@H](C)/C(=N\OCCCCCCNCCCCCNCc2ccccc2)[C@H](C)[C@@H](O)[C@]1(C)O [Compound 8, Erythromycin A (E)-9-[0-[6-[5-(phenylmethylamino)pentylamino]hexyl]oxime]]
[1]
  MIC: 0.0312 µg/mL
[2]
  MIC: 0.5 µg/mL (≈ 0.489 µM)
[3]
  MIC: 0.25 µg/mL
[4]
  MIC: 8 µg/mL (≈ 7.82 µM)
[5]
  MIC: 0.0078 µg/mL
[6]
  MIC: 0.5 µg/mL
[7]
  MIC: 4 µg/mL (≈ 3.91 µM)
[8]
  MIC: 16 µg/mL (≈ 15.6 µM)

## CC[C@H]1OC(=O)[C@H](C)[C@@H](O[C@H]2C[C@@](C)(OC)[C@@H](O)[C@H](C)O2)[C@H](C)[C@@H](O[C@@H]2O[C@H](C)C[C@H](N(C)C)[C@H]2O)[C@](C)(O)C[C@@H](C)/C(=N\OCCNCCNCc2ccccc2)[C@H](C)[C@@H](O)[C@]1(C)O [Compound 5, Erythromycin A (E)-9-[0-[2-[2-(phenylmethylamino)ethylamino]ethyl]oxime]]
[1]
  MIC: 0.0312 µg/mL
[2]
  MIC: 1 µg/mL (≈ 1.08 µM)
[3]
  MIC: 0.0156 µg/mL
[4]
  MIC: 4 µg/mL (≈ 4.32 µM)
[5]
  MIC: 0.0156 µg/mL
[6]
  MIC: 0.0312 µg/mL
[7]
  MIC: 8 µg/mL (≈ 8.65 µM)
[8]
  MIC: 32 µg/mL (≈ 34.6 µM)

## Erythromycin A (E)-9-[0-[2-[N-ethyl-6-[N'-ethyl-N'-(2-phenylethyl)amino]hexylamino]hexyl])oxime] [Compound 2]
[1]
  minimum inhibiting concentration MIC: 0.0156 µg/mL
[2]
  minimum inhibiting concentration MIC: 1 µg/mL
[3]
  minimum inhibiting concentration MIC: 0.0156 µg/mL
[4]
  minimum inhibiting concentration MIC: 8 µg/mL
[5]
  minimum inhibiting concentration MIC: 0.0312 µg/mL
[6]
  minimum inhibiting concentration MIC: 0.0312 µg/mL
[7]
  minimum inhibiting concentration MIC: 16 µg/mL
[8]
  minimum inhibiting concentration MIC: 64 µg/mL

## CC[C@H]1OC(=O)[C@H](C)[C@@H](O[C@H]2C[C@@](C)(OC)[C@@H](O)[C@H](C)O2)[C@H](C)[C@@H](O[C@@H]2O[C@H](C)C[C@H](N(C)C)[C@H]2O)[C@](C)(O)C[C@@H](C)/C(=N\OCCCCCCNCCCNCc2ccccc2)[C@H](C)[C@@H](O)[C@]1(C)O [Compound 7, Erythromycin A (E)-9-[0-[6-[3-(phenylmethylamino)propylamino]hexyl]oxime]]
[1]
  MIC: 0.0312 µg/mL
[2]
  MIC: 0.5 µg/mL (≈ 0.502 µM)
[3]
  MIC: 0.0625 µg/mL
[4]
  MIC: 4 µg/mL (≈ 4.02 µM)
[5]
  MIC: 0.0156 µg/mL
[6]
  MIC: 0.0625 µg/mL
[7]
  MIC: 4 µg/mL (≈ 4.02 µM)
[8]
  MIC: 16 µg/mL (≈ 16.1 µM)

## CC[C@H]1OC(=O)[C@H](C)[C@@H](O[C@H]2C[C@@](C)(OC)[C@@H](O)[C@H](C)O2)[C@H](C)[C@@H](O[C@@H]2O[C@H](C)C[C@H](N(C)C)[C@H]2O)[C@](C)(O)C[C@@H](C)/C(=N\OCCNCCCCCCNCc2ccco2)[C@H](C)[C@@H](O)[C@]1(C)O [Compound 31]
[1]
  MIC: 0.0078 µg/mL
[2]
  MIC: 0.5 µg/mL (≈ 0.515 µM)
[3]
  MIC: 0.0078 µg/mL
[4]
  MIC: 4 µg/mL (≈ 4.12 µM)
[5]
  MIC: 0.0039 µg/mL
[6]
  MIC: 0.0078 µg/mL
[7]
  MIC: 4 µg/mL (≈ 4.12 µM)
[8]
  MIC: 16 µg/mL (≈ 16.5 µM)

## CC[C@H]1OC(=O)[C@H](C)[C@@H](O[C@H]2C[C@@](C)(OC)[C@@H](O)[C@H](C)O2)[C@H](C)[C@@H](O[C@@H]2O[C@H](C)C[C@H](N(C)C)[C@H]2O)[C@](C)(O)C[C@@H](C)/C(=N\OCCNCCCCCCNCc2ccc(O)cc2)[C@H](C)[C@@H](O)[C@]1(C)O [Compound 28, Erythromycin A (E)-9-[0-[2-[6-[(4-hydroxyphenyl)methylamino]hexylamino]ethyl]oxime]]
[1]
  MIC: 0.25 µg/mL
[2]
  MIC: 0.125 µg/mL (≈ 0.125 µM)
[3]
  MIC: 0.25 µg/mL
[4]
  MIC: 16 µg/mL (≈ 16 µM)
[5]
  MIC: 0.125 µg/mL
[6]
  MIC: 0.25 µg/mL
[7]
  MIC: 16 µg/mL (≈ 16 µM)
[8]
  MIC: 32 µg/mL (≈ 32.1 µM)

From patent US5847092A (Zambon Group S.p.A., priority 1994, dated 1998)
